Measured values from article PMC6389625, “The Impact and Mechanism of a Novel Allosteric AMPA Receptor Modulator LCX001 on Protection Against Respiratory Depression in Rodents” (Frontiers in Pharmacology, 2019).

Legend:
AMPA receptors = assay: [3H]AMPA binding to brainstem membranes; set-up: species or system rat; settings: for specific [3H]AMPA binding: 200 nM [3H]AMPA
Protocol: Adult male SD rats (220–250 g) were euthanized by decapitation. The brainstems were dissected and homogenized for 2 min in 15 volumes of ice-cold 50 mM Tris–HCl buffer (pH 7.4) at 4°C. The homogenates were centrifuged at 1,000 g for 10 min, and the supernatants were collected and centrifuged at 40,000 g for 20 min. The pellets were dispersed in 50 mM Tris-HCl pH 7.4 and centrifuged at 40,000 g for 20 min. The last procedures were repeated a third time with a total of four washes to eliminate endogenous glutamate from the tissue. The resulting pellets were suspended in eight volumes of 0.3 M sucrose, then stored at –70°C until use. […] The binding reaction was performed in disposable glass culture tubes at 25°C for 60 min. […] The pellets were washed with ice-cold Tris-HCl pH 7.4 three times and dried with a piece of tissue paper. […] The binding activity on the filters was detected using a LS6500 scintillation counter (Beckman, Shanghai, China). […] Data are presented as the mean ± standard error of the mean (SEM). In the acetic acid writhing and hot-plate tests, experiments were performed blind. Compounds were injected by one researcher and the behavior or data was recorded by another researcher. The significance of change in respiratory parameters was evaluated by repeated measures two-way ANOVA (dose × time) followed by Bonferroni post-hoc tests for comparisons between groups. In the analysis of the acetic acid writhing test, hot-plate test and [^3H]AMPA binding assay, statistical evaluation between the treated groups and control group was performed by one-way ANOVA followed by Dunnett’s test. For saturation binding with [^3H]AMPA, Kd and Bmax values of different groups were obtained from fits to saturation binding curves with the KaleidaGraph programme. For whole-cell patch-clamp recordings, dose-response curves were fitted to the Hill equation using Origin 9.0 software (Originlab, MA, United States) and statistical significance was determined by one-way ANOVA followed by Dunnett’s test. For live cell imaging, two-way ANOVA followed by Bonferroni post-hoc tests was used to compare the treated groups and vehicle group.

[1] = tested on: unanaesthetised adult male SD rats
female KM mice = assay: Hot-plate test; assay type: in vivo, mouse
male KM mice = assay: Acetic acid writhing test; assay type: in vivo, mouse; settings: for inhibition of acetic acid-induced writhing: 10 min before 0.6% acetic acid
[2] = target: T1, recombinant homomeric GluA2(R)flop receptor (Rattus norvegicus, UniProt P19491, Q607R); assay: Whole-cell patch-clamp recording of glutamate-evoked currents in HEK293 cells; assay type: cell-based
T1 construct: rat AMPA-GluA2(R)flop cDNA corresponding to the entire coding region; expressed in transfected cells
Protocol: A wild-type rat AMPA-GluA2(R)flop cDNA corresponding to the entire coding region was generated and cloned into the pcDNA^TM3.1(+) vector (Invitrogen, China, Catalog no. V790-20) by Sangon Biotech Co., Ltd. (Shanghai, China). […] For stable transfection, HEK293 cells (3 × 10^4 cells/well) were seeded in 24-well plates the day before transfection. The cells were grown to 70–90% confluency, and the transfection was performed by adding 1 μg of GluA2 expressing vector per well. Twenty-four hours after transfection, the normal medium was replaced with DMEM/F12 (Gibco, Shanghai, China) growth medium supplemented with 1.0 mg/ml G418 (Gibco, Shanghai, China) and cultured for 7 days. The surviving cells were pelleted and dispersed (100 cells/20 ml), and then seeded into 96-well plates in DMEM/F12 medium containing 500 μg/ml G418. Discrete colonies were picked after 15 days of selection. Western blotting and whole-cell patch-clamp recording were performed to test expression of the AMPA receptor GluA2 subunit and formation of an AMPA-GluA2 ion channel. G418 was kept at 500 μg/ml for the maintenance of stably transfected clones.
HEK293 cells that stably expressed AMPA-GluA2 receptors were seeded into the recording chamber 2 days before patch-clamp recordings, and the experiments were conducted in whole-cell configuration. Thin-walled borosilicate glass (Sutter Instrument, CA, United States) was pulled to make patch pipettes. […] The holding potential was set as -80 mV by an Axopatch-700B amplifier (Axon Instruments, CA, United States), and pClamp8 software (Axon Instruments, CA, United States) was used for data acquisition. Currents were recorded and digitized at 10 kHz. […] LCX001 and CX614 were dissolved in dimethyl sulfoxide (DMSO) before dilution with external bath solution (DMSO final concentration 0.5%). Dose-response curves were fitted to the Hill equation using Origin 9.0 software.

SEP-GluA1 = assay: Live cell imaging of SEP-GluA1 surface expression in primary medulla oblongata neurons; assay type: cell-based, rat; settings: 47 μM final, added at 2 min; P > 0.05
SEP-GluA2(R) = target: T2, SEP-GluA2(R) (Rattus norvegicus, UniProt P19491, Q607R); assay: Live cell imaging of SEP-GluA2(R) surface expression in primary medulla oblongata neurons; assay type: cell-based; settings: 47 μM final, added at 2 min
T2 construct: adenovirus by Hanbio biotechnology plasmid #24001; host or cells: primary medulla oblongata neurons of neonatal SD rats

[3] = tested on: intracellular calcium concentration ([Ca^2+]i) of cultured medullary neurons; assay: Ca2+ imaging (Fluo-4 NW) in primary medulla oblongata neurons; assay type: cell-based, rat; settings: 40 μM final at 7 min, after glutamate 18 μM and fentanyl or TH-030418 42 μM
rodents = assay: Observation of over-excitability after administration; assay type: in vivo; settings: up to 60 mg/kg
rat dentate gyrus = tested on: rat dentate gyrus; set-up: method as in Street et al., 2008; Mueller and Street, 2012; settings: ref Street et al., 2008, Mueller and Street, 2012; cited from earlier work

T1 sequence (P19491 22-883 Q607R): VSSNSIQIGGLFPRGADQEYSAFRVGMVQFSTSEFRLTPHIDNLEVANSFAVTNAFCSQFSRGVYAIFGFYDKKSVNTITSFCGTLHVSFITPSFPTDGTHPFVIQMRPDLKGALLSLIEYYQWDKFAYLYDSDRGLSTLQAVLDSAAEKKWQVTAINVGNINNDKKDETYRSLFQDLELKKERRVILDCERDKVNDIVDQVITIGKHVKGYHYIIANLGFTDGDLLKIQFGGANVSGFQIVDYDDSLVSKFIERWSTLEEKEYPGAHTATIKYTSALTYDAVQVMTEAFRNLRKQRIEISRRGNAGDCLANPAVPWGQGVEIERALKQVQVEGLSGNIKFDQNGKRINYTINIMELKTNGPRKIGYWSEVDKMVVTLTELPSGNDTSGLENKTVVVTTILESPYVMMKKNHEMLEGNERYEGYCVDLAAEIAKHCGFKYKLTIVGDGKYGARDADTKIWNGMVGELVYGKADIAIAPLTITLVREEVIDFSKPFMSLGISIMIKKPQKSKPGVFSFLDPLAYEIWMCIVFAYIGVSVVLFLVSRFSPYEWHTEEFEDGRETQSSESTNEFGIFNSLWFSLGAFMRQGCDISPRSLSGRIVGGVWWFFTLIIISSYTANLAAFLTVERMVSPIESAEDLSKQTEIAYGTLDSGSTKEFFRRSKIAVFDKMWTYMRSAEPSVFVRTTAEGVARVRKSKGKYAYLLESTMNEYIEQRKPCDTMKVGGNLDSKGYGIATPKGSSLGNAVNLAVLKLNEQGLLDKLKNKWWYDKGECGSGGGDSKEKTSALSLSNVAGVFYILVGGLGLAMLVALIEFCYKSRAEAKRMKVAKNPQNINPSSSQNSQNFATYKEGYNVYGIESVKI
T2 sequence (P19491 22-883 Q607R): as above

SMILES: Cc1o[nH]c(=O)c1CC(N)C(=O)O (stereo not shown) [[^3H]AMPA, reference compound]
- Bmax of [3H]AMPA saturation binding (AMPA receptors; without LCX001, one-site model): 6.89 ± 0.11 pmol/mg of protein
- Kd (AMPA receptors; without LCX001, one-site model, read-out: Kd of [3H]AMPA saturation binding): 171 ± 5 nM

SMILES: CCCC(C)C1(CC)C(=O)NC(=O)NC1=O (stereo not shown) [Nembutal, reference compound]
- respiratory frequency ([1]; male, SD, rat, in vivo): 70.3 ± 2.7 % of control

SMILES: CC(C)c1cccc(C(C)C)c1O [propofol, reference compound]
- duration of propofol-mediated respiratory depression ([1]; male, SD, rat, in vivo): 15 to 25 min
- respiratory frequency ([1]; male, SD, rat, in vivo): 53.6 ± 5.8 % of control

SMILES: CN1CC[C@]23c4c5ccc(O)c4O[C@H]2[C@@H](O)C=C[C@H]3[C@H]1C5 [morphine, reference compound]
- %MPE (female KM mice; 10 mg/kg s.c., 30 min after injection, 55°C): about 100%

SMILES: CN(C(=O)c1ccc2nonc2c1)[C@H]1CC[C@H](O)CC1 [LCX001, N-((1r,4r)-4-hydroxycyclohexyl)-N-methylbenzo[c][1,2,5]oxadiazole-5-carboxamid]
- inhibition of acetic acid-induced writhing (male KM mice; 1.5 mg/kg i.v.): 30.76 ± 12.75%
- inhibition of acetic acid-induced writhing (male KM mice; 3 mg/kg i.v.): 41.43 ± 11.32%
- inhibition of acetic acid-induced writhing (male KM mice; 6 mg/kg i.v.): 85.35 ± 9.53%
- inhibition of acetic acid-induced writhing (male KM mice; 12 mg/kg i.v.): 94.78 ± 2.74%
- impact on the analgesic effect of morphine (writhing test) (male KM mice; LCX001 12 mg/kg i.v. 10 min before morphine 2.5 mg/kg s.c., P > 0.05): no impact
- %MPE compared with vehicle (female KM mice; 1.5 mg/kg i.v., 10 min after administration, P > 0.05): no effect
- %MPE compared with vehicle (female KM mice; 3 mg/kg i.v., 10 min after administration, P > 0.05): no effect
- %MPE (female KM mice; 6 mg/kg i.v., 10 min after administration): 30.18 ± 10.56%
- %MPE (female KM mice; 12 mg/kg i.v., 10 min after administration): 65.27 ± 12.22%
- impact on the analgesic effect of morphine (hot-plate test) (female KM mice; LCX001 12 mg/kg i.v. 10 min before morphine 10 mg/kg s.c., P > 0.05): no impact
- specific [3H]AMPA binding (AMPA receptors; LCX001 10^-4 M, control 1595 ± 30): 2095 ± 87 cpm/mg protein
- Bmax of [3H]AMPA after pre-incubation with LCX001 (AMPA receptors; LCX001 10^-4 M, without LCX001 6.89 ± 0.11): 7.77 ± 0.17 pmol/mg of protein
- specific [3H]AMPA binding (AMPA receptors; LCX001 10^-5 M, control 1595 ± 30): 1964 ± 27 cpm/mg protein
- specific [3H]AMPA binding (AMPA receptors; LCX001 10^-6 M, control 1595 ± 30): 1857 ± 20 cpm/mg protein
- specific [3H]AMPA binding (AMPA receptors; LCX001 10^-9–10^-7 M, control 1595 ± 30 cpm/mg protein): unchanged
- nH of glutamate concentration-response curve in the presence of modulator ([2]; 100 μM modulator): 0.84
- glutamate evoked peak amplitude ([2]; 3.5 mM glutamate, 100 μM modulator, control 432 ± 27 pA): 711 ± 20 pA
- glutamate evoked peak amplitude ([2]; 10 mM glutamate, 100 μM modulator, control 752 ± 35 pA): 1120 ± 60 pA
- current induced by compound alone ([2]; in the absence of glutamate): no current
- SEP-GluA1 fluorescence intensity (SEP-GluA1): no impact
- SEP-GluA2 fluorescence intensity (SEP-GluA2(R)): significant and fast increase
- effect on the increased level of [Ca^2+]i in response to fentanyl and TH-030418 [3]: significantly blocked
- over-excitability after administration (rodents): no evidence of over-excitability
- effect on Nembutal-induced respiratory depression ([1]; LCX001 10 mg/kg i.v. 5 min after Nembutal 80 mg/kg i.p., P < 0.05): ameliorated respiratory depression
- effect on TH-030418-induced respiratory depression ([1]; LCX001 10 mg/kg i.v. 5 min after TH-030418 20 μg/kg i.v., P < 0.05): alleviated the reduction of respiratory parameters
- effect on fentanyl-induced respiratory depression (respiratory frequency, minute ventilation) ([1]; LCX001 10 mg/kg i.v. 5 min after fentanyl 120 μg/kg s.c., P < 0.05): effectively countered the inhibition of respiratory frequency and minute ventilation
- effect on propofol-induced respiratory depression ([1]; LCX001 10 mg/kg i.v. 10 min before propofol 30 mg/kg i.v., P < 0.05): reversed the acute reduction of respiratory frequency and minute ventilation
- increase in the amplitude of synaptic currents (rat dentate gyrus): 21%
